These results are taken from ChEMBL document CHEMBL1152446, “Identification of an orally efficacious matrix metalloprotease 12 inhibitor for potential treatment of asthma” (J Med Chem, 2009).

As a reminder, the half-life is the time needed for the level to fall by half in the phase considered. The IC50 is the concentration that inhibits the measured activity by half. As usually defined, the bioavailability is dose-corrected exposure relative to a reference, in per cent. Usually Cmax stands for the highest concentration seen after dosing. One may read the clearance as a measure of how efficiently the substance is removed, as volume per time. Read a low clearance as a low capacity for elimination.

Series [1] in a line: Metabolic stability in C57BL/6 mouse liver microsome assessed as half life. It counts as ADME. Particulars: liver microsomes. In general terms: Liver microsomes are a subcellular fraction often used to study metabolism.
Series [2] can be described thus: in vitro. The following applies: rat, liver microsomes.
Series [3] can be described thus: in vitro. The following applies: human, liver microsomes.
The next series concerns the target Collagenase 3 (Homo sapiens, UniProt P45452). The series is described as follows: Inhibition of human recombinant MMP13.
The nature of series [4]: Volume of distribution at steady state in C57BL/6 mouse at 2 mg/kg, iv. It is filed as ADME, organism-based. The arrangement: dose 2 mg/kg, route intravenous. The following applies: in vivo, read-out: Vdss.
Series [5] in a line: Half life in C57BL/6 mouse at 30 mg/kg, po. Particulars: in vivo. It counts as ADME, organism-based. The arrangement: dose 30 mg/kg, route oral.
Series [6] in a line: Oral bioavailability in C57BL/6 mouse at 30 mg/kg. It is filed as ADME, organism-based. Particulars: in vivo.
Series [7] can be described thus: Cmax in C57BL/6 mouse at 30 mg/kg, po. It is filed as ADME, organism-based. Details: dose 30 mg/kg, route oral. The following applies: in vivo.
A short description of series [8]: Clearance in C57BL/6 mouse at 2 mg/kg, iv. It counts as ADME, organism-based. Particulars: in vivo. Details: dose 2 mg/kg, route intravenous.
Series [9] addresses Macrophage metalloelastase MMP-12 (Homo sapiens) (UniProt P39900). In words: Inhibition of MMP12.
Series [10] concerns the target Macrophage metalloelastase (Homo sapiens, UniProt P39900).
Description: Inhibition of human recombinant MMP12

Sequence of Macrophage metalloelastase (P39900 whole entry): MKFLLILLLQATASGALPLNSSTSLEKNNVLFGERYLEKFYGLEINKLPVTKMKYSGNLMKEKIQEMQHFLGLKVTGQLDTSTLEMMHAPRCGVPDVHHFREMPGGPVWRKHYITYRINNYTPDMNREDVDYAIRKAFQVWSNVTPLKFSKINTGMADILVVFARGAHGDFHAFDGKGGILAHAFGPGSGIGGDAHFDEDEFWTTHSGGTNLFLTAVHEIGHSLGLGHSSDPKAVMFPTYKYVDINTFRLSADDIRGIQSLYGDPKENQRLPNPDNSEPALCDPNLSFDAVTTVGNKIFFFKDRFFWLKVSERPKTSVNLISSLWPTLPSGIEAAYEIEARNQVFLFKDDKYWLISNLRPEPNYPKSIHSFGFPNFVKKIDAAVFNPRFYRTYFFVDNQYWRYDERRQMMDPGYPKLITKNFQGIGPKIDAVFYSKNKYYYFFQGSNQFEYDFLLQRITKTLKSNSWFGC
Sequence of Macrophage metalloelastase MMP-12 (Homo sapiens) (P39900 whole entry, looked up): as the sequence (P39900 whole entry) above

With `CCOC(=O)Nc1ccc2oc3cc(S(=O)(=O)N[C@H](C(=O)O)C(C)C)ccc3c2c1`, the half-life (in series [1]; in “in vitro [2]”; in “in vitro [3]”) was more than 30 min in each case.
Take `CC(C)[C@H](NS(=O)(=O)c1ccc2c(c1)sc1cc(NC(=O)Oc3ccccc3)ccc12)C(=O)O`: the half-life (in series [1]; in “in vitro [2]”; in “in vitro [3]”) was more than 30 min throughout. The half-maximal inhibitory concentration (IC50) on Collagenase 3 worked out at 225 nM.
Take `COC(=O)Nc1ccc2c(c1)sc1ccc(S(=O)(=O)N[C@H](C(=O)O)C(C)C)cc12`: the half-life (in series [1]; in “in vitro [2]”; in the series “in vitro [3]”) was more than 30 min each time. For the same molecule, on Collagenase 3, the concentration for half-maximal inhibition (IC50) is more than 25000 nM.
With `CC(C)[C@H](NS(=O)(=O)c1ccc2c(c1)oc1cc(N3CCOC3=O)ccc12)C(=O)O`, the half-life (in series [1]; in “in vitro [2]”; in “in vitro [3]”) was more than 30 min in each case. Moreover, the concentration for half-maximal inhibition (IC50) at Collagenase 3 worked out at 370 nM.
For the molecule `CC(C)[C@H](NS(=O)(=O)c1ccc2c(c1)sc1cc(NC(=O)OCCS(C)(=O)=O)ccc12)C(=O)O`, the half-life (in series [1]; in the series “in vitro [2]”; in the series “in vitro [3]”) was more than 30 min in each case. Also, on Collagenase 3, the IC50 came out at 40 nM.
For `CCNC(=O)Nc1ccc2c(c1)sc1cc(S(=O)(=O)N[C@H](C(=O)O)C(C)C)ccc12`, the half-life (in series [1]; in “in vitro [2]”; in “in vitro [3]”) was more than 30 min in each case. Also, the 50% inhibitory concentration (IC50) on Collagenase 3 came to 809 nM.
As to `CC(C)COC(=O)Nc1ccc2c(c1)sc1cc(S(=O)(=O)N[C@H](C(=O)O)C(C)C)ccc12`, the half-life (in series [1]; in the series “in vitro [2]”; in “in vitro [3]”) was more than 30 min in each case. Besides, the IC50 at Collagenase 3 was found to be 334 nM.
Regarding `CC(C)[C@H](NS(=O)(=O)c1ccc2c(c1)oc1cc(N)ccc12)C(=O)O`, the half-life (in [1]; in “in vitro [2]”; in “in vitro [3]”) was more than 30 min in each case. Also, the IC50 at Collagenase 3 is 1090 nM.
Consider `CC(C)OC(=O)Nc1ccc2c(c1)sc1cc(S(=O)(=O)N[C@H](C(=O)O)C(C)C)ccc12`, for which the half-life (in series [1]; in the series “in vitro [2]”; in the series “in vitro [3]”) was more than 30 min in each case. In addition, the 50% inhibitory concentration (IC50) on Collagenase 3 was found to be 147 nM.
`COC(=O)Nc1ccc2c(c1)oc1cc(S(=O)(=O)N[C@H](C(=O)O)C(C)C)ccc12`: the half-life (in series [1]; in the series “in vitro [2]”; in the series “in vitro [3]”) was more than 30 min in each case. Also, on Collagenase 3, the 50% inhibitory concentration (IC50) worked out at 505 nM.
For `C#CCCOC(=O)Nc1ccc2c(c1)sc1cc(S(=O)(=O)N[C@H](C(=O)O)C(C)C)ccc12`, the half-life (in series [1]; in “in vitro [2]”; in the series “in vitro [3]”) was more than 30 min in each case. Further, the half-maximal inhibitory concentration (IC50) at Collagenase 3 was 23 nM.
Turning to `CC(C)[C@H](NS(=O)(=O)c1ccc2c(c1)sc1cc(NC(=O)Nc3ccccc3)ccc12)C(=O)O`, the half-life (in series [1]; in the series “in vitro [2]”; in “in vitro [3]”) was more than 30 min each time. For the same molecule, the 50% inhibitory concentration (IC50) on Collagenase 3 stood at 269 nM.
As to `COC(=O)Nc1ccc2sc3cc(S(=O)(=O)N[C@@H](C(=O)O)C(C)C)ccc3c2c1`, the half-life was more than 30 min in series [1], 276 min in [5], more than 30 min in the series “in vitro [2]” and more than 30 min in “in vitro [3]”. Further, the IC50 on Collagenase 3 came out at 1.22 nM. Also, in series [4], the Vd came to 3.7 L/kg. The molecule also gave a bioavailability in series [6] of 19%. In [7], the peak concentration (Cmax) stood at 738 ng/mL. This molecule also showed a clearance in series [8] of 59.9 mL/min/kg.
As to `CC(C)[C@@H](NS(=O)(=O)c1ccc2sc3ccccc3c2c1)C(=O)O`, the IC50 on Collagenase 3 came out at 13800 nM.
As to `CC(C)[C@H](NS(=O)(=O)c1ccc2c(c1)sc1cc(NC(=O)NCCc3cccs3)ccc12)C(=O)O`, the half-life (in [1]; in “in vitro [2]”; in the series “in vitro [3]”) was more than 30 min each time. For the same molecule, the IC50 on Collagenase 3 was 456 nM.
With `CC(C)[C@H](NS(=O)(=O)c1ccc2c(c1)sc1cc(N)ccc12)C(=O)O`, the half-life (in series [1]; in “in vitro [2]”; in the series “in vitro [3]”) was more than 30 min throughout. For the same molecule, the IC50 at Collagenase 3 was more than 1000 nM.
For `CCOC(=O)Nc1ccc2c(c1)sc1cc(S(=O)(=O)N[C@@H](C(=O)O)C(C)C)ccc12`, the half-life (in series [1]; in “in vitro [2]”; in the series “in vitro [3]”) was more than 30 min throughout.
Take `CC(C)[C@@H](NS(=O)(=O)c1ccc2sc3cc(NS(C)(=O)=O)ccc3c2c1)C(=O)O`: the half-inhibitory concentration (IC50) on Collagenase 3 was more than 25000 nM.
With `COC(=O)Nc1ccc2oc3cc(S(=O)(=O)N[C@H](C(=O)O)C(C)C)ccc3c2c1`, the half-life (in series [1]; in the series “in vitro [2]”; in “in vitro [3]”) was more than 30 min in each case. In [9], the half-inhibitory concentration (IC50) stood at 2 nM.
Turning to `CC(C)[C@@H](NS(=O)(=O)c1ccc2c(c1)sc1cc(NC(=O)Nc3ccccc3)ccc12)C(=O)O`, the half-life (in series [1]; in the series “in vitro [2]”; in “in vitro [3]”) was more than 30 min in each case. On Collagenase 3, the IC50 came out at 1290 nM.
Take `CC(C)[C@H](NS(=O)(=O)c1ccc2sc3ccccc3c2c1)C(=O)O`: the 50% inhibitory concentration (IC50) on Collagenase 3 worked out at 60000 nM.
Still for that read-out and setting: then `CC(C)[C@@H](NS(=O)(=O)c1ccc2c(c1)sc1ccc(NS(C)(=O)=O)cc12)C(=O)O`, with 277 nM; and `CC(C)[C@H](NS(=O)(=O)c1ccc2sc3cc(NS(C)(=O)=O)ccc3c2c1)C(=O)O`, with more than 25000 nM.
Regarding `Cc1ccc(OC(=O)Nc2ccc3c(c2)sc2cc(S(=O)(=O)N[C@H](C(=O)O)C(C)C)ccc23)cc1`, the half-life (in series [1]; in “in vitro [2]”; in “in vitro [3]”) was more than 30 min in each case. Moreover, on Collagenase 3, the IC50 was 235 nM.
With `COC(=O)Nc1ccc2c(c1)oc1cc(S(=O)(=O)N[C@@H](C(=O)O)C(C)C)ccc12`, the half-life (in series [1]; in the series “in vitro [2]”; in “in vitro [3]”) was more than 30 min in each case. On Collagenase 3, the IC50 turned out to be 215 nM.
`COC(=O)Nc1ccc2c(c1)sc1cc(S(=O)(=O)N[C@@H](C(=O)O)C(C)C)ccc12`: the half-life (in [1]; in “in vitro [2]”; in the series “in vitro [3]”) was more than 30 min each time. Further, at Collagenase 3, the IC50 was 1350 nM.
Consider `CC(C)[C@H](NS(=O)(=O)c1ccc2c(c1)sc1cc(NC(=O)NC3CCCC3)ccc12)C(=O)O`, for which the half-life (in series [1]; in “in vitro [2]”; in “in vitro [3]”) was more than 30 min each time. Besides, the IC50 (at Collagenase 3; in series [10]) was more than 1000 nM in each case.
As for `CC(C)[C@H](NS(=O)(=O)c1ccc2c(c1)sc1ccc(NS(C)(=O)=O)cc12)C(=O)O`, the IC50 on Collagenase 3 worked out at 1140 nM.
As for `COC(=O)Nc1ccc2sc3cc(S(=O)(=O)N[C@H](C(=O)O)C(C)C)ccc3c2c1`, the half-life in series [1] was more than 30 min; in series [5] it was 186 min; in the series “in vitro [2]”, more than 30 min; in the series “in vitro [3]”, more than 30 min. Moreover, on Collagenase 3, the IC50 is 65 nM. The Vd in [4] amounted to 1.7 L/kg. The molecule further displayed a bioavailability in series [6] of 34%. The concentration in series [7] peaked (Cmax) at 1820 ng/mL. The molecule further came in with a clearance in [8] of 31.2 mL/min/kg.
On to `CC(C)[C@H](NS(=O)(=O)c1ccc2c(c1)sc1cc(NC(=O)Oc3ccc(F)cc3)ccc12)C(=O)O`, for which the half-life (in series [1]; in the series “in vitro [2]”; in the series “in vitro [3]”) was more than 30 min in each case. Besides, at Collagenase 3, the half-maximal inhibitory concentration (IC50) was found to be 217 nM.
For `CC(C)[C@H](NS(=O)(=O)c1ccc2c(c1)oc1cc(NC(=O)NCCc3cccs3)ccc12)C(=O)O`, the half-life (in series [1]; in the series “in vitro [2]”; in “in vitro [3]”) was more than 30 min throughout. In addition, the 50% inhibitory concentration (IC50) at Collagenase 3 turned out to be 187 nM.
Regarding `CC(C)[C@H](NS(=O)(=O)c1ccc2c(c1)sc1cc(N3CCOC3=O)ccc12)C(=O)O`, the half-life (in series [1]; in the series “in vitro [2]”; in the series “in vitro [3]”) was more than 30 min throughout. On Collagenase 3, the half-inhibitory concentration (IC50) was 140 nM.
On to `COC(=O)Nc1ccc2c(c1)sc1ccc(S(=O)(=O)N[C@@H](C(=O)O)C(C)C)cc12`, for which the half-life (in series [1]; in the series “in vitro [2]”; in the series “in vitro [3]”) was more than 30 min in each case. The IC50 on Collagenase 3 was more than 25000 nM.
Turning to `COC(=O)Nc1ccc2c(c1)sc1cc(S(=O)(=O)N[C@H](C(=O)O)C(C)C)ccc12`, the half-life (in series [1]; in “in vitro [2]”; in “in vitro [3]”) was more than 30 min each time. Moreover, the 50% inhibitory concentration (IC50) at Collagenase 3 was 632 nM.
Take `CC(C)[C@H](NS(=O)(=O)c1ccc2c(c1)sc1cc(NC(=O)NCc3ccccc3)ccc12)C(=O)O`: the half-life (in [1]; in the series “in vitro [2]”; in “in vitro [3]”) was more than 30 min each time. Further, at Collagenase 3, the 50% inhibitory concentration (IC50) is 200 nM.
For the molecule `CCOC(=O)Nc1ccc2c(c1)sc1cc(S(=O)(=O)N[C@H](C(=O)O)C(C)C)ccc12`, the half-life (in [1]; in “in vitro [2]”; in “in vitro [3]”) was more than 30 min in each case. Besides, at Collagenase 3, the 50% inhibitory concentration (IC50) turned out to be 56 nM.
